Source: patent US5733719A, “Method of making an assay compound” (priority 1995, dated 1998)
Where a name gives a salt, the structure may show the parent alone. Blank lines part the entries; values can stand above or below the compound they belong to.

Key:
cells = conditions: even when buffered
Native free fluorescence = format: physicochemical
Source text: Assays for peptidases using assay compounds generate fluorescence generally in the range of 10^-5 to 10^-6 Molar free rhodamine 110. Therefore, it is preferred that the free rhodamine 110 and blocked peptide impurities in the assay reagent should be removed to a concentration of less than the fluorescence generated by about 1×10^-6 M and more preferably less than the fluorescence generated by about 10^-7 Molar free indicator group. This amounts to a 100,000 photon count using rhodamine 110 as a standard at 10^-7 -10^-8 M, preferably 5×10^-8 M in a 1 cm path length cuvette when measured over 10 min. on a photon counting spectrofluorometer manufactured by the SLM Company of Chicago, Ill. This corresponds to a use level on the flow cytometer where no cellular false positive can be detected for a 10 minute period at the highest sensitivity setting. […] The presence of impurities causes a decrease in the storage stability of the compound, resulting in an increased autohydrolysis which leads to increased background fluorescence. A compound should be free of impurities such that when the compound (or reagent containing the compound) is stored at 4° C. for 30 days, preferably 90 days, more preferably 180 days, most preferably one year, the background fluorescence increases less than 10%, preferably less than 5%, most preferably less than 1% over these time periods, respectively. […]

[1] = system: acute lympholytic Ficoll prepared lymphocytes; assay: Amino peptidase activity in acute lymphocytic leukemia lymphocytes; format: cell-based; conditions: FIG. 4B, log fluorescence at 525 nm v. time
Source text: The cell's ability to fight off an invader lies within its genetics and therefore cell type. The "readiness" however of any genetically capable group of cells to defend is different. A measure of this "readiness" is manifest in the available proteolytic enzymes contained within vacuoles or on the surface of the cell. The assay compound hydrolysis rate increases with increased mass of enzymes giving a picture of immune competence both in number of cells and activity level. […] Images were generated using Universal Imaging.

aminopeptidase = assay: Inhibition of aminopeptidase reaction with (H-L-Asp)2 rhodamine 110; format: biochemical; conditions: approximately 10 mM
Source text: The chemical nature of the buffer is important to the reactivity of the assay compound with the cellular enzymes. […] In addition, the assay compound hydrolysis by the enzyme occurs at an increased rate of reaction.

[2] = Effect of sodium chloride on dipeptide reagent; conditions: 7mM, pH range of 6.5 to 8.7
Source text: Inhibitors and poisons (or toxins) are components that can be added to reduce the activity of non-targeted enzymes that provide competing reactions for the leaving group. Inhibitors are usually very selective for a particular enzyme. For example, EDTA only works with enzymes requiring Ca^+2, Mg^+2 and some other metals. […] Preferred inhibitors for particular enzymes are included in Table 1.

SMILES: Br.Cc1ncc(C)n2nc(CCc3nc(-c4ccccc4)cn3C)nc12 [hydrogen bromide (HBr), hydrogen bromide]
effect on cells (cells): kills cells

SMILES: CC(C)C[C@H](N)C(=O)NCC(=O)Nc1ccc2c(c1)Oc1cc(NC(=O)CNC(=O)[C@@H](N)CC(C)C)ccc1C21OC(=O)c2ccccc21 [tartrate salt of (LeuGly)2 rhodamine 110, (H--L--Leu--Gly)2 Rho 110-2Tartrate]
native free fluorescence (Native free fluorescence): 61,000 photons

enzymatic activity [1]: lost their enzymatic activity
SMILES: CC(C)C[C@H](N)C(=O)Nc1ccc2c(c1)Oc1cc(NC(=O)[C@@H](N)CC(C)C)ccc1C21OC(=O)c2ccccc21 [LEU, (Leu)2 Rho 110]

SMILES: [Ca+2].[Cl-].[Cl-] [calcium chloride]
inhibition of enzyme reaction with (H-L-Asp)2 rhodamine 110 (aminopeptidase): inhibitory

SMILES: [Cl-].[Na+] [sodium chloride]
inhibitory effect on dipeptide reagent [2]: slightly inhibitory effect
